{
  "source": "patent US20230241038A1",
  "about": "“METHOD OF TREATING RNA REPEAT MEDIATED DISEASES WITH RNA REPEAT BINDING COMPOUND” (AMO Pharma Ltd., priority 2021, published 2023)",
  "key": {"[1]": {"target": "RNA construct containing CUG repeats (RNA hairpin 1; SEQ ID NO:1)", "assay": "MicroScale Thermophoresis (MST) fluorescence binding assay, RNA hairpin 1", "details": "RNA hairpin 1 (CUG repeats)", "protocol": "[The procedure below names another target; the source lists this target under the same test.] This direct binding was determined using a MicroScale Thermophoresis (MST) Fluorescence binding assays with Tideglusib and an RNA hairpin containing CUG repeats. […] MBNL1 has a well characterized role in myotonic dystrophy where impaired RNA splicing disrupts muscle development and function.\nThe method used for the MST fluorescence assay was as follows. A serial dilution of the ligand (Tideglusib) was prepared in a way to match the final buffer conditions in the reaction mix (assay buffer 20 mM HEPES pH 7.4, 0.05% Tween-20). The highest concentration of ligand was 500 μM and the lowest 15.3 nM. 5 μl of each dilution step were mixed with 5 μl of the fluorescent molecule. The final reaction mixture, which was filled in capillaries, contained a respective amount of ligand (max. conc. 250 μM, min. conc. 7.63 nM) and constant 50 nM fluorescent molecule. The samples were analyzed on a Monolith NT. 115 at 25° C., with 40% LED power and 40% Laser power. The fluorescence labeled RNA construct (RNA hairpin 2; produced by Metabion) had the following sequence: […]"}, "[2]": {"test_system": "RNA construct containing CAG repeats (RNA hairpin 2; SEQ ID NO:2)", "assay": "MicroScale Thermophoresis (MST) fluorescence binding assay, RNA hairpin 2", "details": "RNA hairpin 2 (CAG repeats)", "protocol": "The method used for the MST fluorescence assay was as follows. A serial dilution of the ligand (Tideglusib) was prepared in a way to match the final buffer conditions in the reaction mix (assay buffer 20 mM HEPES pH 7.4, 0.05% Tween-20). The highest concentration of ligand was 500 μM and the lowest 15.3 nM. 5 μl of each dilution step were mixed with 5 μl of the fluorescent molecule. The final reaction mixture, which was filled in capillaries, contained a respective amount of ligand (max. conc. 250 μM, min. conc. 7.63 nM) and constant 50 nM fluorescent molecule. The samples were analyzed on a Monolith NT. 115 at 25° C., with 40% LED power and 40% Laser power. The fluorescence labeled RNA construct (RNA hairpin 2; produced by Metabion) had the following sequence:\nBinding to other RNA trinucleotide repeats was investigated by repeating the experimental protocol above with an RNA repeat construct containing CAG repeats (RNA hairpin 2)."}, "[3]": {"target": "RNA construct containing CUG repeats with interspersed interrupting non CUG repeats (RNA hairpin 3; SEQ ID NO:3)", "assay": "MicroScale Thermophoresis (MST) fluorescence binding assay, RNA hairpin 3"}, "[4]": {"test_system": "GSK3β", "assay": "GSK3β kinase protein levels in lymphocytes from treated Congenital Onset DM1 patients", "type": "in vivo, human", "details": "400 mg or 1000 mg po per day, six and twelve weeks of treatment", "protocol": "(§1) Lymphocyte cell pellets were lysed in 150 μl of cold NP40 Cell Lysis Buffer with protease inhibitors. Total protein of each extract was measured with DC Protein assay Kit according to the manufacturer specifications. For the analysis of GSK3β and related kinases, the commercially available kits AKT Pathway Total Multispecies 7-Plex Panel and the equivalent for the phosphorylated forms for Luminex® Platform from Thermo Fisher Scientific were used. These were the AKT Pathway (Total) 7-Plex Multispecies Panel (#LHO0002M ThermoFisher Scientific) that assays the following signaling proteins: GSK3β, Total IR, IGF-1R, IRS-1, Akt, PRAS40 and p70s6K. The AKT Pathway (Phospho) 7-Plex Multispecies Panel (#LHO0001M ThermoFisher Scientific) assays the following signaling proteins: GSK3β[pS9], IR[pYpY1162/1163], IGF-1R[pYpY1135/1136], IRS-1[pS312], Akt[pS473], PRAS40[pT246] and p70s6K[pTpS421/424]."}, "[5]": {"test_system": "phosphorylated Akt (pAkt)", "assay": "Phosphorylated Akt (pAkt) levels in lymphocytes from treated Congenital Onset DM1 patients", "type": "in vivo, human", "details": "400 mg or 1000 mg per day, six and twelve weeks of treatment", "protocol": "as §1, with “In order to determine whether the clinical benefit produced by administration of Tideglusib could be related to inhibition of GSK3β, the activity of this kinase in circulating tissues in treated patients was determined. Lymphocyte” for “Lymphocyte”, “IRS-1[[…]],” for “IRS-1[pS312],”, “PRAS40[[…]]” for “PRAS40[pT246]”, “[…]421/424].” for “p70s6K[pTpS421/424].”"}, "[6]": {"test_system": "patients having DM1", "assay": "Clinical Global Impression of Improvement in patients having DM1", "type": "in vivo, human", "details": "patients having DM1, 400 mg or 1000 mg"}, "[7]": {"test_system": "phosphorylated Akt (pAkt)", "assay": "Phosphorylated Akt in lymphocytes from pediatric subjects with Autism Spectrum Disorder", "type": "in vivo, human", "details": "12 weeks, titrated 400 mg to 1000 mg oral once per day, versus placebo, p<0.0001", "protocol": "as §1, with “In order to determine whether the clinical benefit produced by administration of Tideglusib could be related to inhibition of GSK3β, the activity of this kinase in circulating tissues in treated patients was determined. Lymphocyte” for “Lymphocyte”, “IRS-1[[…]],” for “IRS-1[pS312],”, “PRAS40[[…]]” for “PRAS40[pT246]”, “[…]421/424].” for “p70s6K[pTpS421/424].”"}, "[8]": {"test_system": "ERK (pERK)", "assay": "Phosphorylated ERK in lymphocytes from pediatric subjects with Autism Spectrum Disorder", "type": "in vivo, human", "details": "12 weeks, titrated 400 mg to 1000 mg oral once per day, versus placebo"}, "[9]": {"test_system": "JNK (pJNK)", "assay": "Phosphorylated JNK in lymphocytes from pediatric subjects with Autism Spectrum Disorder", "type": "in vivo, human", "details": "12 weeks, titrated 400 mg to 1000 mg oral once per day, versus placebo"}},
  "note": "“Also recorded” adds a separate entry of the source. Like-named read-outs stand apart in the source and are kept apart here.",
  "data": [
    {"smiles": "O=c1sn(-c2cccc3ccccc23)c(=O)n1Cc1ccccc1", "note": "[Tideglusib, 4-Benzyl-2-naphthalen-1-yl-[1,2,4]thiadiazolidine-3,5-dione]", "values": [
      {"measurement": "Kd", "setting": "[1]; MST, 25° C., read-out: KD of binding", "value": 0.0197, "unit": "µM"},
      {"measurement": "binding to CAG repeat RNA (in words)", "setting": "[2]", "value": "No reliable of binding"},
      {"measurement": "Kd", "setting": "[3]; RNA hairpin 3, CUG repeats with interrupting non CUG repeats, read-out: KD of binding", "value": 3.2, "unit": "µM"},
      {"measurement": "Kd", "setting": "[3]; RNA hairpin 3, interspersed non CUG repeats (CCG and CUC), read-out: potency of binding", "value": 3.2, "unit": "µM"},
      {"measurement": "fold less potent binding versus RNA hairpin 1", "setting": "[3]; RNA hairpin 3 versus RNA hairpin 1", "value": 162, "unit": "fold"},
      {"measurement": "effect on GSK3β levels in lymphocytes", "setting": "[4]", "value": "Neither dose shows any effect"},
      {"measurement": "effect on GSK3β levels in lymphocytes", "setting": "[4]; listed as Compound 1", "value": "no effect"},
      {"measurement": "effect on phosphorylated Akt (pAkt) levels in lymphocytes", "setting": "[5]", "value": "not achieved; also recorded: unable overcome the phosphorylation of Akt"},
      {"measurement": "effect on phosphorylated Akt (pAkt) levels in lymphocytes", "setting": "[5]; listed as Compound 1", "value": "no effect"},
      {"measurement": "clinical benefit, Clinical Global Impression of Improvement measurement scale", "setting": "[6]", "value": "majority of patients having DM1 treated with Tideglusib showed clinical benefit"},
      {"measurement": "inhibition of phosphorylation of Akt in lymphocytes", "setting": "[7]", "value": "reduces levels of phosphorylation of Akt; also recorded: inhibited phosphorylation of Akt"},
      {"measurement": "inhibition of phosphorylation of ERK in lymphocytes", "setting": "[8]", "value": "did not inhibit phosphorylation"},
      {"measurement": "inhibition of phosphorylation of JNK in lymphocytes", "setting": "[9]", "value": "did not inhibit phosphorylation"}
    ]},
    {"smiles": "O=C(NCc1ccccc1)Nc1cccc2ccccc12", "note": "[urea derivative of Tideglusib, 1-benzyl-3-naphthalen-1-yl-urea]", "values": [
      {"measurement": "binding to CUG repeat RNA (in words)", "setting": "[1]; MST", "value": "no binding activity"},
      {"measurement": "binding to CUG repeat RNA (in words)", "setting": "[1]; MST, listed as main metabolite of Tideglusib", "value": "No reliable binding"}
    ]},
    {"smiles": "CCn1c(=O)sn(Cc2ccccc2)c1=O", "note": "[Compound 2, 2-Benzyl-4-ethyl-[1,2,4]thiadiazolidine-3,5-dione]", "values": [
      {"measurement": "Kd", "setting": "[1]; data not shown, read-out: KD", "value": 31.4, "unit": "µM"}
    ]}
  ]
}
